Source: US20170008921A1, “C-3 NOVEL TRITERPENONE WITH C-28 REVERSE AMIDE DERIVATIVES AS HIV INHIBITORS” (HETERO RESEARCH FOUNDATION, priority 2015, published 2017)

How the values were obtained:
[1] = Cyto-toxicity (MTT assay); type: cell-based
[2] = Single dose oral pharmacokinetic study; type: in vivo; details: mouse, Mice oral PK @30 mg/kg, plasma, vehicle 10% Solutol+20% PEG; for AUC(0-t): read-out: AUC0-t; for Cmax: read-out: Cmax
Method in brief: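 Rats or mice dosed orally at 30 mg/kg in 10% Solutol+20% PEG. Acetonitrile precipitation, then LC-MS/MS quantification for PK parameters.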

With CC(C)C1=C2[C@H]3CC[C@@H]4[C@@]5(C)CC[C@H](OC(=O)[C@H]6C[C@@H](C(=O)O)C6(C)C)C(C)(C)[C@@H]5CC[C@@]4(C)[C@]3(C)CC[C@@]2(NC(=O)C(C)(C)NC(=O)c2ccc3[nH]c(-c4cnccn4)nc3c2)CC1=O [Example 15, (1R,3S)-3-((((3aR,5aR,5bR,7aR,9S,11aR,11bR,13aS)-1-isopropyl-5a,5b,8,8,11a-pentamethyl-3a-(2-methyl-2-(2-(pyrazin-2-yl)-1H-benzo[d]imidazole-5-carboxamido)propanamido)-2-oxo-3,3a,4,5,5a,5b,6,7,7a,8,9,10,11,11a,11b,12,13,13a-octadecahydro-2H-cyclopenta[a]chrysen-9-yl)oxy)carbonyl)-2,2-dimethylcyclobutane-1-carboxylic acid] as the compound, how does the viability at 4 days, 0.01 µM [1] read?
Its viability at 4 days, 0.01 µM is 44%.

And the viability at 4 days, 0.1 µM [1]?
Its viability at 4 days, 0.1 µM is 8%.

And the viability at 4 days, 1 µM [1]?
The viability at 4 days, 1 µM was 2%.

And the AUC(0-t) [2]?
Its AUC(0-t) is 141 µg·h/mL.

And the Cmax [2]?
The Cmax was 12800 ng/mL.

What does the source list for CC(C)C1=C2[C@H]3CC[C@@H]4[C@@]5(C)CC[C@H](OC(=O)[C@H]6C[C@@H](C(=O)O)C6(C)C)C(C)(C)[C@@H]5CC[C@@]4(C)[C@]3(C)CC[C@@]2(NC(=O)C(C)(C)NC(=O)CN2CCCCC2)CC1=O [Example 10, (1R,3S)-3-((((3aR,5aR,5bR,7aR,9S,11aR,11bR,13aS)-1-isopropyl-5a,5b,8,8,11a-pentamethyl-3a-(2-methyl-2-(2-(piperidin-1-yl)acetamido)propan amido)-2-oxo-3,3a,4,5,5a,5b,6,7,7a,8,9,10,11,11a,11b,12,13,13a-octadecahydro-2H-cyclopenta[a]chrysen-9-yl)oxy)carbonyl)-2,2-dimethylcyclobutane-1-carboxylic acid]?
viability at 4 days, 0.01 µM [1]: 67%; viability at 4 days, 0.1 µM [1]: 1%; viability at 4 days, 1 µM [1]: 0%; AUC(0-t) [2]: 69.8 µg·h/mL; Cmax [2]: 9790 ng/mL

With CC(C)C1=C2[C@H]3CC[C@@H]4[C@@]5(C)CC[C@H](OC(=O)[C@H]6C[C@@H](C(=O)O)C6(C)C)C(C)(C)[C@@H]5CC[C@@]4(C)[C@]3(C)CC[C@@]2(NC(=O)C(C)(C)NC(=O)c2ccc(N3CCOCC3)cc2)CC1=O [Example 18, (1R,3S)-3-((((3aR,5aR,5bR,7aR,9S,11aR,11bR,13aS)-1-isopropyl-5a,5b,8,8,11a-pentamethyl-3a-(2-methyl-2-(4-morpholinobenzamido)propanamido)-2-oxo-3,3a,4,5,5a,5b,6,7,7a,8,9,10,11,11a,11b,12,13,13a-octadecahydro-2H-cyclopenta[a]chrysen-9-yl)oxy)carbonyl)-2,2-dimethylcyclobutane-1-carboxylic acid] as the compound, how does the viability at 4 days, 0.001 µM [1] read?
The viability at 4 days, 0.001 µM was 78%.

What about the viability at 4 days, 0.003 µM [1] of the same compound?
The viability at 4 days, 0.003 µM was 61%.

And the viability at 4 days, 0.01 µM [1]?
Its viability at 4 days, 0.01 µM is 29%.

And the AUC(0-t) [2]?
The AUC(0-t) was 236 µg·h/mL.

And the Cmax [2]?
Its Cmax is 15900 ng/mL.

What does the source list for CC(C)C1=C2[C@H]3CC[C@@H]4[C@@]5(C)CC[C@H](OC(=O)[C@H]6C[C@@H](C(=O)O)C6(C)C)C(C)(C)[C@@H]5CC[C@@]4(C)[C@]3(C)CC[C@@]2(NC(=O)C(C)(C)NC(=O)c2cnccn2)CC1=O [Example 5, (1R,3S)-3-((((3aR,5aR,5bR,7aR,9S,11aR,11bR,13aS)-1-isopropyl-5a,5b,8,8,11a-pentamethyl-3a-(2-methyl-2-(pyrazine-2-carboxamido)propanamido)-2-oxo-3,3a,4,5,5a,5b,6,7,7a,8,9,10,11,11a,11b,12,13,13a-octadecahydro-2H-cyclopenta[a]chrysen-9-yl)oxy)carbonyl)-2,2-dimethylcyclobutane-1-carboxylic acid]?
viability at 4 days, 0.01 µM [1]: 74%; viability at 4 days, 0.1 µM [1]: 35%; viability at 4 days, 1 µM [1]: 4%; AUC(0-t) [2]: 289 µg·h/mL; Cmax [2]: 26000 ng/mL
